Values of other authors as cited in patent US20210059959A1, “USE OF CANNABINOIDS IN THE TREATMENT OF MENTAL DISORDERS” (GW Pharma Limited, priority 2015, published 2021).

Tested on: positive or negative symptoms of schizophrenia
Settings: placebo-controlled clinical trial; cited from earlier work

Cc1c(C(=O)NN2CCCCC2)nn(-c2ccc(Cl)cc2Cl)c1-c1ccc(Cl)cc1 [rimonabant]
Effect on positive or negative symptoms of schizophrenia: no effect
